AC50, IC50 and EC50 data for 5 compounds are collected here from ChEMBL document CHEMBL1201862, “PubChem BioAssay data set” (2004).

In assay [1] the target is T1, Replicative DNA helicase DnaB (Mycobacterium tuberculosis, UniProt P9WMR3).
T1 sequence (P9WMR3 whole entry): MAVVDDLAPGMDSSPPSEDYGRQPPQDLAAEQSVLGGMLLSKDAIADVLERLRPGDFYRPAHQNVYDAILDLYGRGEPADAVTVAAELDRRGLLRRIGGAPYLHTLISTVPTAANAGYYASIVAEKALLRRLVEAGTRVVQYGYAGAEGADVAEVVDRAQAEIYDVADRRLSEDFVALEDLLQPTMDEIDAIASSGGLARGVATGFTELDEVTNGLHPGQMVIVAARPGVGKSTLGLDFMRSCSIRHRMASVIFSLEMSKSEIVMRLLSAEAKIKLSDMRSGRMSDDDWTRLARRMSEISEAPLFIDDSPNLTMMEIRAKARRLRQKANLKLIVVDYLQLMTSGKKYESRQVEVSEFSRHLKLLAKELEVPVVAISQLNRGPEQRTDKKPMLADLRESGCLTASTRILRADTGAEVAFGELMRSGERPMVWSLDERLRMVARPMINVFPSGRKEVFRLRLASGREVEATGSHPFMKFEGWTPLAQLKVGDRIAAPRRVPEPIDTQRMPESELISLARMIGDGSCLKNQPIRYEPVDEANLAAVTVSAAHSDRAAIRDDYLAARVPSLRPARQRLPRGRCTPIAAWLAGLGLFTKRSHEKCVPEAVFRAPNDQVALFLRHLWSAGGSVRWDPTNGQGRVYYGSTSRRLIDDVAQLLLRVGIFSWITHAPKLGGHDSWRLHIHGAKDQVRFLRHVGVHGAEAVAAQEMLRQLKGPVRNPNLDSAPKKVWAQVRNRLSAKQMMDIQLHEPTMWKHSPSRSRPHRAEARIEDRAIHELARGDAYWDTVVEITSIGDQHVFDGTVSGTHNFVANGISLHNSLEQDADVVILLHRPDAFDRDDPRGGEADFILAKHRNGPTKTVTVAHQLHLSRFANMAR
Description: DnaB intein splicing inhibitors, dose response, biochemical, cell-free fluorescence (AID 449749). In kind it is functional.

Assay [2] has as its target Heat shock protein HSP 90-alpha (Homo sapiens, UniProt P07900). Description: Luminescence-based dose response biochemical high throughput screening assay for inhibitors of the Heat Shock Protein 90 (HSP90). [Related pubchem assays: 1831 (Summary AID.), 1846 (Confirmation screen.), 1789 (Primary screen.)].
The target of assay [3] is Mitochondrial peptide methionine sulfoxide reductase (Bos taurus, UniProt P54149). In kind it is functional.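 Also: absorbance read-out, biochemical high-throughput dose-response screen for MsrA inhibitors, confirmatory; recombinant bovine MsrA coupled to E. coli TrxB with NADPH and selenocystamine; potency is for inhibitors of MsrA activity on DMSO substrate.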
Chain of Mitochondrial peptide methionine sulfoxide reductase (P54149 whole entry): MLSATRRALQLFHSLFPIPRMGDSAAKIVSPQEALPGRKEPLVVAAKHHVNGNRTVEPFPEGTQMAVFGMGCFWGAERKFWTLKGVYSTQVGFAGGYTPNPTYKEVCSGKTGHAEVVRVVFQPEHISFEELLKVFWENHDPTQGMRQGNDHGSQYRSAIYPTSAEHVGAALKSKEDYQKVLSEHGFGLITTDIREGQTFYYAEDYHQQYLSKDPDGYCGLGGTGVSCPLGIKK
For the next assay, the system named is Streptococcus. In words: Group A Streptococcus viability loss, dose response, counter-screen for streptokinase expression inhibitor project, luminescence, BacTiterGlo (AID 1915).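 Also: potency for reduction of bacterial viability or growth.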 In kind it is functional, organism-based.
Another assay addresses T2, Hexokinase HKDC1 (Homo sapiens, UniProt Q2TB90).
T2 sequence (Q2TB90 whole entry): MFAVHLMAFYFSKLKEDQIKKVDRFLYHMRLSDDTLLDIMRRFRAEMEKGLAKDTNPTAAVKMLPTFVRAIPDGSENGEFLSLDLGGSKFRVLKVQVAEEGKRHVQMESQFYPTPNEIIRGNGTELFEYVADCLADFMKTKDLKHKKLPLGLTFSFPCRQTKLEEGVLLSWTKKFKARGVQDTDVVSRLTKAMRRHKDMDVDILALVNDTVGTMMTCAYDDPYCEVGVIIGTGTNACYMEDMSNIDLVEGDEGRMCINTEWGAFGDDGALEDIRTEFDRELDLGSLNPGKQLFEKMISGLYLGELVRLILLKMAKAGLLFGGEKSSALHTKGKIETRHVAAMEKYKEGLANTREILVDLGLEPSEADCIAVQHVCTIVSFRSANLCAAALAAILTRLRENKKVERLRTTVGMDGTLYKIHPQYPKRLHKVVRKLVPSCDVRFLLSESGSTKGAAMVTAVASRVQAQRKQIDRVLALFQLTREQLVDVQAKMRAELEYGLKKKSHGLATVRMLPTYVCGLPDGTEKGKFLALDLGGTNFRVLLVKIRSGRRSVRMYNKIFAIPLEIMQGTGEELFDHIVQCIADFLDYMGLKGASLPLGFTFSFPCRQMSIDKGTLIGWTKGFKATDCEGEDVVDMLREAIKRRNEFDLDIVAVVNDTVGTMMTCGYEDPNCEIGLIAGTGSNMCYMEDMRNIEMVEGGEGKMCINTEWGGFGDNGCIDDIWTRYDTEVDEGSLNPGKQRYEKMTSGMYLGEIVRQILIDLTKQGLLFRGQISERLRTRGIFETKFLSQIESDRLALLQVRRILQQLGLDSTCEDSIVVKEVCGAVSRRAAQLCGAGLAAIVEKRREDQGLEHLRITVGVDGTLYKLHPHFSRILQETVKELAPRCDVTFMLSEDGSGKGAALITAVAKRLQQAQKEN
Description: HKDC1 hexokinase inhibitors, dose response, biochemical, W721R variant (AID 504729). In kind it is functional.

The target of the next assay is T3, Protein skinhead-1 (Caenorhabditis elegans, UniProt P34707).
T3 sequence (P34707 whole entry): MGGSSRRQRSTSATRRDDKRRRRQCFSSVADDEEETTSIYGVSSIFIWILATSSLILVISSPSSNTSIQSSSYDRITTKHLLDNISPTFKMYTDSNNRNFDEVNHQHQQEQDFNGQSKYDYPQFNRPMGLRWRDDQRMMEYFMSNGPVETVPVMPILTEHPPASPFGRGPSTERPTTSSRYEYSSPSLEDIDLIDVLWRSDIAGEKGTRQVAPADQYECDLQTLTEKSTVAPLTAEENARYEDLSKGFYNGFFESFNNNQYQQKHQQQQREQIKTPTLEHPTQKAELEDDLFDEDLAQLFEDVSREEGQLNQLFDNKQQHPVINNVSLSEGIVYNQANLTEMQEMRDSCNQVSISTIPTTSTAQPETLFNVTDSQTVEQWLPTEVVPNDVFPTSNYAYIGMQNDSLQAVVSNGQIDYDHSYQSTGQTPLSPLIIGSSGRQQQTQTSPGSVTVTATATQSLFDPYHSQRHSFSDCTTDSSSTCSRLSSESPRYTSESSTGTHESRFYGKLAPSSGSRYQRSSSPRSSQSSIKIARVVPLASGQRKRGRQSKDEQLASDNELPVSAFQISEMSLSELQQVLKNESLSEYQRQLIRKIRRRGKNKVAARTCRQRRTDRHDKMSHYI
In kind it is functional.

Activity calls are given as the source filed them.

`Cc1ccccc1NC1=C/C(=N\S(=O)(=O)c2ccc(C(=O)O)cc2)c2ccccc2C1=O`: in assay [1], the AC50 (commonly the midpoint of the concentration-response curve, whichever way the signal moves) was 105 µM (active). Also, the IC50 (usually the concentration needed to halve the response being measured) in assay [2] was 0.522 µM (active); in assay [3] it was 62.4 µM (inactive); on Hexokinase HKDC1, 2.53 µM (active). Also, the 50% effective concentration (EC50) (usually the concentration that produces a half-maximal response) with Streptococcus is 5.01 µM (active).

For `O=C(Nc1ccc(C#Cc2ccccc2)cc1)C1CC1`, the IC50 on Protein skinhead-1 is > 100 µM (inactive).

Turning to `Cc1ccc(NC2=C/C(=N/S(=O)(=O)c3cccs3)c3ccccc3C2=O)cc1`, the AC50 in assay [1] is 0.301 µM (active). In addition, in assay [3], the IC50 is 425 µM (inactive).

`COC(=O)C[C@]1(C(=O)OC)CN(C#N)N(c2ccc(Cl)cc2)C12c1ccccc1-c1ccccc12`: the AC50 in assay [1] is 1.83 µM (active). In addition, the IC50 in assay [2] was 3.75 µM (active); at Hexokinase HKDC1, 3.35 µM (active).

Consider `COc1ccc(-c2cc(-c3ccc(C)cc3)[nH]n2)c(O)c1`, for which the EC50 in the assay with Streptococcus was 15.8 µM (active). The IC50 on Protein skinhead-1 is > 100 µM (inactive).
